Laboratory results reported in US20090280169A1, “Compositions of peptides and processes of preparation thereof” (Merrion Research III Limited, priority 2008, published 2009).
Entries after “also recorded” stand apart in the source; their conditions may differ. Non-standard residues stand in square brackets, D forms with d. Residues, ends and D or L forms follow the SMILES beside them. dPhe(4-NH2) = Nc1ccc(C[C@@H](N)C(=O)O)cc1; dPhe(4-Cl) = N[C@H](Cc1ccc(Cl)cc1)C(=O)O; Phe(4-NH2) = Nc1ccc(C[C@H](N)C(=O)O)cc1; d2Nal = N[C@H](Cc1ccc2ccccc2c1)C(=O)O; Lys(iPr) = CC(C)NCCCC[C@H](N)C(=O)O; d3Pal = N[C@H](Cc1cccnc1)C(=O)O

Experiment: Gelation of acyline in pH 6.8 buffer with sodium caprate and Tween 80 (filtration, HPLC)
Assay type: physicochemical
Description: Different concentrations of acyline composition are prepared by adding acyline to pH 6.8 buffer solution either at room temperature or 37° C. All acyline solutions contain 0.6 mg/mL sodium caprate (sodium caprate is referred as C10 in the figures). All samples are centrifuged and filtered prior to analysis. Samples are analyzed by reverse phase HPLC with UV detection. 10 mg acyline is transferred into […] volumetric flask. A pH 6.8 buffer solution is preheated to 37° C. Then, 100 mL pre-heated buffer solution and 0.6 mg/mL sodium caprate is added to the flask to prepare a 0.1 mg/mL acyline sample. In a similar manner, Tween 80 is added to prepare a 0.1 mg/mL acyline solution with 1% Tween 80. Samples are shaken in a temperature controlled water bath at 37° C. 5 mL samples are taken at 1, 5, 10, 15, 20, 30 and 120 minutes after mixing acyline with the buffer solution. Samples are filtered immediately through 0.45 μm filters and the first 3 mL is discarded. Filtered samples are analyzed, undiluted, by reverse phase HPLC with UV detection. All samples are prepared in duplicate and the concentration was obtained for the analysis from the mean of the duplicates. The result of comparison of 1% and 0% Tween 80 at 0.1 mg/mL acyline sample is graphically recorded in FIG. 5. […] A similar experimental procedure as Example 4 is used to prepare acyline sample for example 5. The result of comparison of 5 mg/mL, 1.0 mg/mL, 0.1 mg/mL, and 0.1% Tween in phosphate buffer containing 0.6 mg/mL of sodium caprate and 0.1 mg/mL acyline is graphically recorded in FIG. 6. […] A similar experimental procedure as Example 4 is used to prepare acyline sample for example 6. The result of comparison of 1% and 1 mg/mL Tween 80 in 0.1 and 0.01 mg/mL acyline sample is graphically recorded in FIG. 7. […] A similar experimental procedure as Example 4 is used to prepare acyline sample for example 7. The result of comparison of 0.01 mg/mL acyline samples having 0.1%, 0.5% and 1% Tween 80 is graphically recorded in FIG. 8.

## CC(=O)Nc1ccc(C[C@H](NC(=O)[C@H](CO)NC(=O)[C@@H](Cc2cccnc2)NC(=O)[C@@H](Cc2ccc(Cl)cc2)NC(=O)[C@@H](Cc2ccc3ccccc3c2)NC(C)=O)C(=O)N[C@H](Cc2ccc(NC(C)=O)cc2)C(=O)N[C@@H](CC(C)C)C(=O)N[C@@H](CCCCNC(C)C)C(=O)N2CCC[C@H]2C(=O)N[C@H](C)C(N)=O)cc1 [acyline, Ac-D2Nal-D4Cpa-D3Pal-Ser4Aph(Ac)-D4Aph(Ac)-Leu-ILys-Pro-DAla-NH2] (Ac-[d2Nal][dPhe(4-Cl)][d3Pal]S[Phe(4-NH2)](Ac)[dPhe(4-NH2)](Ac)L[Lys(iPr)]P[dA]-NH2)
0.01 mg/mL acyline, 0.6 mg/mL sodium caprate, 1% Tween 80
  gelation of acyline: significantly reduces the gelation
0.1 mg/mL acyline, 0.6 mg/mL sodium caprate, 1% Tween 80
  gelation of acyline: successfully reduces the gelation; also recorded: completely inhibit the gelation
0.1 mg/mL acyline, 37° C., 0.6 mg/mL sodium caprate alone (0% Tween 80)
  gelation of acyline: insufficient to reduce the gelation
